Tests used:
[1] = Clinical pharmacokinetics of ivermectin metabolites in blood of healthy volunteers; format: in vivo, human; conditions: for Cmax [ratio]: area/internal standard area ratio; for Cmax [ratio] / Half-life / MRTlast / Tmax: whole blood, 12 subjects, mean ± SE; for Cmax [ratio] / Half-life / MRTlast: 12 mg ivermectin, NCA; for Tmax: single oral 12 mg ivermectin
Description: Peripheral venous blood samples were collected before dosing and after 1, 2, 4, 6, 8, 12, 24, 48 and 72 h. Blood samples (50 µL) were extracted by the addition of 150 µL ISTD solution. Samples were mixed for 1 min and centrifuged for 30 min at 3220×g and 15 °C (5810 R centrifuge). Twenty microlitres of supernatant were injected into the LC–MS/MS system to determine the signal intensity of the metabolites.
The different LC–MS/MS settings were applied for the metabolism, pharmacokinetic and metabolite fractioning assays (Additional file 1: Table S1, S2, S3). All analyses were performed on a modular HPLC (Shimadzu, Kyoto, Japan) composed of four pumps (2 × LC-30AD, 2 × LC-20AD), an autosampler (SIL 30-AC MP), a system controller (CBM-20A), two degassing units (DGU-20A5 and DGU-20A3R), a column oven (CTO-20AC), a low-pressure valve (FCV-12AH), and a fraction collector (FRC-12A). The HPLC system was connected to an API 5000 triple quadrupole mass spectrometer (AB Sciex, Ontario, Canada) that was equipped with a turbo electrospray ionization source. The system was operated with Analyst Software 1.7 (AB Sciex) and acquired data were analysed using MultiQuant Software 3.0.3 (AB Sciex).
The integral method “linear up log down” was used on area/internal standard area ratio.
In total, three T0 blank blood samples originating from different PK study participants were used to resuspend the metabolites (Additional file 1: Table S5). The signal intensity was recorded for every metabolite by extracting the 50 µL blood with 150 µL of ISTD solution. The metabolite peak area was determined by LC–MS/MS (see section LC-MS/MS analysis of ivermectin). Moreover, the PK samples of all study participants were equally extracted and analysed to derive the maximal blood level (Cmax) from the blood level-time curves. Afterwards, the mean metabolite peak area of the spiked blank blood was compared with the mean peak area of the Cmax samples (Additional file 1: Table S5). The amount of each metabolite fraction was either reduced or increased to match the peak area of Cmax samples. If the metabolite was not detectable in PK samples, the amount of metabolite was adjusted to the lower limit of detection of the method. In this case, blank blood was spiked with the metabolite fraction to receive a signal intensity that is three times larger than the corresponding noise level.

[2] = tested on: Anopheles stephensi mosquitoes; assay: Anopheles stephensi membrane feeding screening assay (survival and activity); format: in vivo; conditions: for Average activity score: score +2 flying, +1 moving, 0 dead; for activity against An. stephensi: at Cmax levels observed in clinical PK samples
Description: The final DMSO content in blood was 0.1%, which was also the DMSO concentration used for the negative control assays (0.1% DMSO in blank blood). Inclusion of blank fractions as additional negative controls were not considered, because it would not have been feasible to also test the corresponding blank fraction for each metabolite fraction (F1–F9). The blood preparations were rotated at room temperature for 20 min to ensure a uniform metabolite distribution (Rotator Genie, Scientific Industries, Bohemia, USA). The dissolution of the metabolites was confirmed by LC–MS/MS.
Around 50–70 female mosquitoes aged 5–10 days post-emergence were transferred with a mouth aspirator into 20 mL paper cups. A piece of mosquito netting was used to cover the cups. Mosquitoes were starved for 24 h before treatment. The mosquito blood meals were heated in a water bath (SAHARA PPO S5P Heated Bath Circulators, Thermo Fisher Scientific, New Hampshire, USA) for 20 min at 39 °C. A Petri dish (35 mm × 10 mm, BD, Franklin Lakes, USA) was filled with 3 mL of warm blood, sealed with a piece of sealing film (Parafilm®, Huberlab AG, Aesch, Switzerland). The Petri dish was placed upside down on top of the net sealing the paper cup. Female mosquitoes were allowed to feed for 20 min on the blood through the net and the sealing film. The feeding was conducted in a climate chamber (HPP110, Memmert GmbH + Co.KG, Schwabach, Germany) at 27 °C, 70% humidity, and 30% light intensity. After feeding, the cups were put on ice to immobilise the mosquitoes and only the fully engorged mosquitoes were selected for the assay. The mosquitoes were returned to the climate chamber to assess their activity and survival for 3 days.
In the framework of screening assays, mosquitoes were treated with blood containing each metabolite corresponding to Cmax levels observed in PK samples. […] In screening assays, eleven treatments were evaluated with three replicates using three batches of 50–70 mosquitoes.

[3] = mean of PK subjects 1-12, 50 µL blood

Compound | Observed Cmax, peak area ([1]; PK subject 1, 50 µL blood) | Observed Cmax, peak area ([1]; PK subject 2, 50 µL blood) | Observed Cmax, peak area ([1]; PK subject 3, 50 µL blood) | Observed Cmax, peak area ([1]; PK subject 4, 50 µL blood) | Observed Cmax, peak area ([1]; PK subject 5, 50 µL blood) | Observed Cmax, peak area ([1]; PK subject 6, 50 µL blood) | Observed Cmax, peak area ([1]; PK subject 7, 50 µL blood) | Observed Cmax, peak area ([1]; PK subject 8, 50 µL blood) | Observed Cmax, peak area ([1]; PK subject 9, 50 µL blood) | Observed Cmax, peak area ([1]; PK subject 10, 50 µL blood) | Observed Cmax, peak area ([1]; PK subject 11, 50 µL blood) | Observed Cmax, peak area ([1]; PK subject 12, 50 µL blood) | Cmax [ratio] [1] | Observed Cmax, peak area [1, 3] | Half-life [1] | Tmax [1] | Average activity score ([2]; 0 h post feeding) | Average activity score ([2]; 24 h post feeding) | Average activity score ([2]; 48 h post feeding) | Average activity score ([2]; 72 h post feeding) | further results
3″-O-desmethyl, 26-hydroxy-H2B1a [M6] | 3.04E+03 counts | 1.56E+03 counts | 2.10E+03 counts | 1.60E+03 counts | 1.15E+03 counts | 3.23E+03 counts | 1.62E+03 counts | 1.82E+03 counts | 1.80E+03 counts | 1.99E+03 counts | 2.12E+03 counts | 2.69E+03 counts | 0.002 ± 0.0002 ratio | 2.06E+03 counts | 32.4 ± 4.1 h | 5.4 ± 0.4 h | 2.00 | 1.89 | 1.91 | 1.42 | MRTlast [1]: 18.3 ± 1.6 h; activity against An. stephensi [2]: minor mosquitocidal properties; mean survival of mosquitoes after blood meal ([2]; blood meal at Cmax level): decreased
4, 26-dihydroxy- H2B1a [M8] | 7.02E+02 counts | 5.34E+02 counts | 4.91E+02 counts | 3.41E+02 counts | 3.43E+02 counts | 6.41E+02 counts | 3.42E+02 counts | 4.91E+02 counts | 4.29E+02 counts | 4.93E+02 counts | 2.79E+02 counts | 4.55E+02 counts |  | 4.62E+02 counts |  | 5.0 ± 0.3 h | 2.00 | 1.91 | 1.93 | 1.68 | 
26-hydroxy-H2B1a monosaccharide [M7] | 1.31E+03 counts | 7.70E+02 counts | 9.70E+02 counts | 7.68E+02 counts | 8.12E+02 counts | 1.39E+03 counts | 1.26E+03 counts | 1.09E+03 counts | 7.88E+02 counts | 9.63E+02 counts | 1.21E+03 counts | 9.57E+02 counts |  | 1.02E+03 counts |  | 6.1 ± 0.4 h | 2.00 | 1.85 | 1.80 | 1.69 | 
CCC(C)C1OC2(CCC1C)CC1CC(CC=C(C)C(OC3CC(OC)C(OC4CC(O)C(O)C(C)O4)C(C)O3)C(C)C=CC=C3COC4C(O)C(CO)=CC(C(=O)O1)C34O)O2 (centres unmarked) [M4, 3″-O-desmethyl, 4-hydroxy-H2B1a] | 6.13E+03 counts | 4.65E+03 counts | 5.03E+03 counts | 4.08E+03 counts | 2.43E+03 counts | 7.98E+03 counts | 4.09E+03 counts | 5.21E+03 counts | 4.12E+03 counts | 5.38E+03 counts | 5.67E+03 counts | 5.92E+03 counts | 0.004 ± 0.0004 ratio | 5.06E+03 counts | 57.5 ± 13.2 h | 6.0 ± 0.2 h | 2.00 | 1.84 | 1.30 | 0.57 | MRTlast [1]: 29.4 ± 1.7 h; activity against An. stephensi [2]: minor mosquitocidal properties; mean survival of mosquitoes after blood meal ([2]; blood meal at Cmax level): decreased; mosquito survival ([2]; blood meal at Cmax level, observation period of 3 days): 35%
26-hydroxy-H2B1a [M3] | 6.21E+03 counts | 3.33E+03 counts | 4.98E+03 counts | 2.70E+03 counts | 3.63E+03 counts | 5.52E+03 counts | 4.44E+03 counts | 4.04E+03 counts | 3.41E+03 counts | 4.42E+03 counts | 4.22E+03 counts | 4.51E+03 counts | 0.003 ± 0.0003 ratio | 4.28E+03 counts | 15.9 ± 2.8 h | 5.3 ± 0.2 h | 2.00 | 1.82 | 1.86 | 1.67 | MRTlast [1]: 13.9 ± 1.3 h
CC[C@H](C)[C@H]1O[C@]2(CC[C@@H]1CO)C[C@@H]1C[C@@H](C/C=C(\C)[C@@H](O[C@H]3C[C@H](OC)[C@@H](O)[C@H](C)O3)[C@@H](C)/C=C/C=C3\CO[C@@H]4[C@H](O)C(C)=C[C@@H](C(=O)O1)[C@]34O)O2 [M5, 24-hydroxy-H2B1a monosaccharide] | 7.86E+02 counts | 5.85E+02 counts | 1.01E+03 counts | 7.22E+02 counts | 6.06E+02 counts | 1.25E+03 counts | 8.58E+02 counts | 6.84E+02 counts | 6.59E+02 counts | 7.23E+02 counts | 8.95E+02 counts | 7.29E+02 counts |  | 7.92E+02 counts |  | 6.4 ± 0.4 h | 2.00 | 1.90 | 1.86 | 1.81 | 
